Assay results published in US20160346291A1, “COMPOSITIONS AND THERAPEUTIC METHODS FOR ACCELERATED PLAQUE REGRESSION” (Resverlogix Corp, priority 2013, published 2016).
Like-named read-outs stand apart in the source and are kept apart here.

Legend:
ApoA-I mRNA = ApoA-I mRNA quantitation in HepG2 cells (real-time PCR); format: cell-based; parameters: key: Active: An active compound is one that causes a >15% increase in ApoA-I mRNA at a concentration less than or equal to 100 uM; conditions: concentration less than or equal to 100 uM, fold induction relative to DMSO control
Summary of the method: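 HepG2 cells were lysed after compound treatment and mRNA captured on oligo plates, then quantified by one-step real-time RT-PCR with primer-probe mixes. Ct values gave fold induction relative to the matching DMSO control. Active means >15% increase in ApoA-I mRNA at ≤100 uM.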

coronary atherosclerosis [1] = conditions: 2 years; pravastatin 40 mg daily, atorvastatin 80 mg daily; cited from earlier work
coronary atherosclerosis [2] = conditions: 2 years; rosuvastatin 40 mg daily, atorvastatin 80 mg daily; cited from earlier work
ABCA1 = conditions: cited from earlier work
coronary atherosclerosis [3] = conditions: cited from earlier work

Row | SMILES | Effect on ApoA-I mRNA levels (ApoA-I mRNA) | effect on expression of ABCA1 (ABCA1) | also measured
1 | COc1cc(OC)c2c(=O)[nH]c(-c3cc(C)c(OCCNS(=O)(=O)c4ccccc4)c(C)c3)nc2c1 [N-(2-(4-(5,7-dimethoxy-4-oxo-3,4-dihydroquinazolin-2-yl)-2,6-dimethylphenoxy)ethyl)benzenesulfonamide] | Active | – | –
2 | COc1cc(OC)c2c(=O)[nH]c(-c3cc(C)c(OCCNC(=O)C(C)C)c(C)c3)nc2c1 [N-(2-(4-(5,7-dimethoxy-4-oxo-3,4-dihydroquinazolin-2-yl)-2,6-dimethylphenoxy)ethyl)isobutyramide] | Active | – | –
3 | COc1cc(OC)c2c(=O)[nH]c(-c3cc(C)c(OCCNS(C)(=O)=O)c(C)c3)nc2c1 [N-(2-(4-(5,7-dimethoxy-4-oxo-3,4-dihydroquinazolin-2-yl)-2,6-dimethylphenoxy)ethyl)methanesulfonamide] | Active | – | –
4 | CC(=O)Nc1ccc2nc(-c3cc(C)c(O)c(C)c3)[nH]c(=O)c2c1 [N-(2-(4-hydroxy-3,5-dimethylphenyl)-4-oxo-3,4-dihydroquinazolin-6-yl)acetamide] | Active | – | –
5 | COc1cc(OC)c2c(=O)[nH]c(-c3cc(C)c(NC(=O)CO)c(C)c3)nc2c1 [N-(4-(5,7-dimethoxy-4-oxo-3,4-dihydroquinazolin-2-yl)-2,6-dimethylphenyl)-2-hydroxyacetamide] | Active | – | –
6 | COc1cc(OC)c2c(=O)[nH]c(-c3ccc(NC(=O)CO)cc3)nc2c1 [N-(4-(5,7-dimethoxy-4-oxo-3,4-dihydroquinazolin-2-yl)phenyl)-2-hydroxyacetamide] | Active | – | –
7 | CC(C)c1c(C(=O)Nc2ccccc2)c(-c2ccccc2)c(-c2ccc(F)cc2)n1CC[C@@H](O)C[C@@H](O)CC(=O)O [atorvastatin] | – | inhibit ABCA1 expression | median change in PAV (coronary atherosclerosis [1]): +0.2%; median change in PAV (coronary atherosclerosis [2]): −0.99%
8 | O=C(O)C[C@H](O)C[C@H](O)/C=C/c1c(C2CC2)nc2ccccc2c1-c1ccc(F)cc1 [pitavastatin, (3R,5S,6E)-7-[2-cyclopropyl-4-(4-fluorophenyl)quinolin-3-yl]-3,5-dihydroxyhept-6-enoic acid] | – | increase expression of ABCA1 | –
9 | CC(C)c1nc(N(C)S(C)(=O)=O)nc(-c2ccc(F)cc2)c1/C=C/[C@@H](O)C[C@@H](O)CC(=O)O [rosuvastatin, (3R,5S,6E)-7-[4-(4-fluorophenyl)-2-(N-methylmethanesulfonamido)-6-(propan-2-yl)pyrimidin-5-yl]-3,5-dihydroxyhept-6-enoic acid] | – | increase expression of ABCA1 | median change in PAV (coronary atherosclerosis [2]): −1.22%; median change PAV (coronary atherosclerosis [3]; 2 years, rosuvastatin 40 mg daily, overall): −0.79%; median decrease in PAV from baseline (coronary atherosclerosis [3]; 2 years, rosuvastatin 40 mg daily, subgroup with average HDL-C during treatment less than 40 mg/dL): −1.3%; PAV decrease (coronary atherosclerosis [3]; FIG. 8, 40 mg of rosuvastatin without RVX-208, after 104 weeks): 1.30%
